Eleven molecules from ChEMBL document CHEMBL1133498, “QSAR of 1,1'-(1,2-ethylenebisbenzyl)bis(4-substitutedpyridinium) dibromides as choline kinase inhibitors: a different approach for antiproliferative drug design” (Bioorg Med Chem Lett, 2000) can be followed below.

The subject of this assay is HT-29. As to the kind of experiment: Compound was tested in vitro for antiproliferative activity against human HT-29 cell line. The assay is classed as functional, cell-based.

As a reminder, the IC50 is the concentration that gives 50% inhibition. A high value points to lower potency. `c1cc(C[n+]2ccc(N3CCCCC3)cc2)ccc1CCc1ccc(C[n+]2ccc(N3CCCCC3)cc2)cc1` returned an IC50 of 0.4 µM.
The result for `Nc1cc[n+](Cc2ccc(CCc3ccc(C[n+]4ccc(N)cc4)cc3)cc2)cc1` reads 4 µM.
With `CN(C)c1cc[n+](Cc2ccc(CCc3ccc(C[n+]4ccc(N(C)C)cc4)cc3)cc2)cc1`, the IC50 amounted to 2 µM.
The molecule `c1cc(C[n+]2ccc(N3CCCCCC3)cc2)ccc1CCc1ccc(C[n+]2ccc(N3CCCCCC3)cc2)cc1` showed an IC50 of 0.4 µM. This IC50 lies about 5-fold lower than the previous one.
In turn, `OCc1cc[n+](Cc2ccc(CCc3ccc(C[n+]4ccc(CO)cc4)cc3)cc2)cc1` came in with an IC50 greater than 100 µM.
The molecule `O=C(O)c1cc[n+](Cc2ccc(CCc3ccc(C[n+]4ccc(C(=O)O)cc4)cc3)cc2)cc1` gave an IC50 greater than 1000 µM.
Molecule `C=CCN(CC=C)c1cc[n+](Cc2ccc(CCc3ccc(C[n+]4ccc(N(CC=C)CC=C)cc4)cc3)cc2)cc1` gave an IC50 of 0.55 µM.
`N#Cc1cc[n+](Cc2ccc(CCc3ccc(C[n+]4ccc(C#N)cc4)cc3)cc2)cc1` showed an IC50 of 200 µM.
In the case of `Cc1cc[n+](Cc2ccc(CCc3ccc(C[n+]4ccc(C)cc4)cc3)cc2)cc1`, the IC50 is 20 µM. This IC50 is about 10-fold lower than that of the molecule before.
The molecule `c1cc(C[n+]2ccc(N3CCCC3)cc2)ccc1CCc1ccc(C[n+]2ccc(N3CCCC3)cc2)cc1` yielded an IC50 of 1 µM.
The result for `C[N+]1(C)CCOC(O)(c2ccc(-c3ccc(C4(O)C[N+](C)(C)CCO4)cc3)cc2)C1` (stereo unspecified) [HEMICHOLINIUM-3] reads 2500 µM.
